In article PMC11677527, “Predicting Pharmacokinetics of Active Constituents in Spatholobi caulis by Using Physiologically Based Pharmacokinetic Models” (Pharmaceuticals, 2024):
Read-outs that look alike come from different tables or passages of the source.

Legend:
[1] = Verification pharmacokinetic experiment in rats, SPC 60 g crude drug/kg by gavage, UFLC-MS/MS, DAS 2.0; format: in vivo, rat
Description: To validate the accuracy of PBPK models in predicting the pharmacokinetics of SPC constituents at different oral doses, the pharmacokinetic behavior of these four constituents from SPC in rats were analyzed by UFLC-MS/MS. The parameters were calculated using Drug and Statistics Software version 2.0, and then these validated values (Val.) were used to check the accuracy of the Calc. values and evaluated by FE.
The pharmacokinetic fitting results of rats given 60 g crude drug/kg body weight of SPC by gavage were verified by experiments. The verification experiment was conducted according to our previous pharmacokinetic study. In brief, 1.5 mL suspension of SPC was given to rats by oral administration; 300 μL blood samples from orbital venous at 0.083, 0.25, 0.5, 0.75, 1.0, 1.5, 2, 3, 4, 6, 8, and 12 h were collected and pretreated with heparin sodium. After centrifugation, the plasma samples were obtained and further processed for subsequent detection by UFLC-MS/MS; the detailed analysis method is shown in Supplementary Data (Table S1 and Figure S1). The concentration-time curve of each compound was gained, and the pharmacokinetic parameters were calculated using DAS 2.0 software (DAS 2.0, Mathematical Pharmacology Professional Committee of China, Shanghai, China). The results of these four constituents were compared with the PBPK parameters predicted in rats at an oral dose of 60 g crude drug/kg body weight of SPC.
1. The instrument and analytical conditions of UFLC-MS/MS method
4 constituents (1. 3′-methoxydadizein; 2. 8-O-methylretusin; 3. Daidzin; and 4. […]
The internal standard (IS) carbamazepine with a purity of more than 99 % was purchased from Beijing JK-chemical technology Co. Ltd., (Beijing China). Heparin sodium was gained from Tianjin biochemical pharmaceutical Co. Ltd, (Tianjin, China).
Ammonium acetate of HPLC grade, methanol and acetonitrile of LC-MS grade were purchased from Sigma (LOT# BCBK6717V, sigma-aldrich, Co., MO, USA) and Fisher (Fisher Corp., Fair lawn, NJ, USA) respectively. The experimental ultrapure water was prepared by Millipore Milli-Q ultrapure water preparation apparatus (Millipore Sigma, […]
The detailed information of Shimadzu UFLC-MS/MS 8050 liquid mass system equipped with Nexera X2UFLC liquid chromatography system and 8050 triple quadrupole mass spectrometers with an electrospray ionization source were listed in our previous study. The supporting LabSolution workstation was used for data […]
The separation without superposition of analytes in plasma sample was achieved on a Kinetex® C18 chromatographic column (100mm×2.1mm i.d.; 2.6 μm, 100 Å; Phenomenex, Inc., Torrance, CA, USA) assembled with a Phenomenex p/n AJ0-9000 C18 protection column. The mobile phase was consisted of 0.5 mM ammonium acetate in water (A) and ACN (B). The gradient elution program was selected ultimately as […]
95 % B (18.7–22 min). Column and automatic sampler temperature were set as 30 °C and 4 °C respectively. The flow rate of mobile phase was 0.35 mL/min while sample injection volume was 4 μL.
Multiple reaction monitoring (MRM) of positive or negative modes were used as scanning modes for the analytes and IS. Other essential parameters were successively optimized as: Nebulizing gas flow, 3 L/min; Heating gas flow, 10 L/min; Drying gas flow, 10 L/min; Interface temperature, 300 °C; DL temperature, 250 °C; Interface and detector voltage were each set as 3.0 kV and 1.8 kV. The detection parameters such as retention time (RT), dwell time (DT), quadrupole 1 pre-rod bias (Q1), collision energy […]
Table S1 The retention time and ion equivalent parameters of 4 constituents in rat […]
Constituents Retention Precursor Precursor Product time Pre energy Pre time (min) ion species ion ion (msec) Bias (V) Bias

[2] = parameters: method as in PMID 34303214; conditions: rats, p.o. SPC 30 g crude drug/kg; doses of 1-4: 0.062, 0.11, 0.71, 1.31 mg/kg; cited from earlier work
[3] = tested on: Caco-2 cell monolayer; parameters: method as in PMID 36680806, PMID 26501241; conditions: Caco-2 cell monolayer model; cited from earlier work
[4] = Observed pharmacokinetics in rats after oral SPC (previous study); format: in vivo, rat; conditions: p.o. SPC
[5] = compartment model parameters, DAS 2.0, rats p.o. SPC 60 g crude drug/kg, Mean, 5 rats
[6] = statistical moment parameters, DAS 2.0, rats p.o. SPC 60 g crude drug/kg, Mean, 5 rats
[7] = statistical moment parameters, DAS 2.0, rats p.o. SPC 60 g crude drug/kg, Mean, 5 rats, in µg·h²/mL

## O=c1c(-c2ccc(O)cc2)coc2cc(O[C@@H]3O[C@H](CO)[C@@H](O)[C@H](O)[C@H]3O)ccc12 [Constituent 3, daidzin]
[1]; [5]
  K10: 0.981 h⁻¹
  K12: 0.402 h⁻¹
  K21: 0.15 h⁻¹
  Ka: 16.131 h⁻¹
  Tlag: 0 h
  V1/F: 37.289 L/kg
  t1/2Ka: 0.385 h
  t1/2α: 0.868 h
[1]; rat, plasma, oral, time 0.083 h, rats p.o. SPC 60 g crude drug/kg, doses of 1-4: 0.124, 0.22, 1.4, 2.62 mg/kg, 5 rats
  concentration at 0.083 h: 16.4 ng/mL
[1]; rat, plasma, oral, time 0.25 h, rats p.o. SPC 60 g crude drug/kg, doses of 1-4: 0.124, 0.22, 1.4, 2.62 mg/kg, 5 rats
  concentration at 0.25 h: 28 ng/mL
[1]; rat, plasma, oral, time 0.5 h, rats p.o. SPC 60 g crude drug/kg, doses of 1-4: 0.124, 0.22, 1.4, 2.62 mg/kg, 5 rats
  concentration at 0.5 h: 21 ng/mL
[1]; rat, plasma, oral, time 0.75 h, rats p.o. SPC 60 g crude drug/kg, doses of 1-4: 0.124, 0.22, 1.4, 2.62 mg/kg, 5 rats
  concentration at 0.75 h: 18.4 ng/mL
[1]; rat, plasma, oral, time 1 h, rats p.o. SPC 60 g crude drug/kg, doses of 1-4: 0.124, 0.22, 1.4, 2.62 mg/kg, 5 rats
  concentration at 1 h: 10.9 ng/mL
[1]; rat, plasma, oral, time 1.5 h, rats p.o. SPC 60 g crude drug/kg, doses of 1-4: 0.124, 0.22, 1.4, 2.62 mg/kg, 5 rats
  concentration at 1.5 h: 5.55 ng/mL
[1]; rat, plasma, oral, time 2 h, rats p.o. SPC 60 g crude drug/kg, doses of 1-4: 0.124, 0.22, 1.4, 2.62 mg/kg, 5 rats
  concentration at 2 h: 3.16 ng/mL
[1]; rat, plasma, oral, time 3 h, rats p.o. SPC 60 g crude drug/kg, doses of 1-4: 0.124, 0.22, 1.4, 2.62 mg/kg, 5 rats
  concentration at 3 h: 2.62 ng/mL
[1]; rat, plasma, oral, time 4 h, rats p.o. SPC 60 g crude drug/kg, doses of 1-4: 0.124, 0.22, 1.4, 2.62 mg/kg, 5 rats
  concentration at 4 h: 1.56 ng/mL
[1]; rat, plasma, oral, time 6 h, rats p.o. SPC 60 g crude drug/kg, doses of 1-4: 0.124, 0.22, 1.4, 2.62 mg/kg, 5 rats
  concentration at 6 h: 1.39 ng/mL
[1]; rat, plasma, oral, time 8 h, rats p.o. SPC 60 g crude drug/kg, doses of 1-4: 0.124, 0.22, 1.4, 2.62 mg/kg, 5 rats
  concentration at 8 h: 1.18 ng/mL
[1]; rat, plasma, po, 1.4 mg/kg, compartment model parameters, DAS 2.0, rats p.o. SPC 60 g crude drug/kg, Mean, 5 rats, read-out: AUC(0-t)
  AUC(0-t): 37.1 ng·h/mL
[1]; rat, plasma, po, 1.4 mg/kg, compartment model parameters, DAS 2.0, rats p.o. SPC 60 g crude drug/kg, Mean, 5 rats, read-out: AUC(0-∞)
  AUC(0-inf): 39.5 ng·h/mL
[1]; rat, plasma, po, 1.4 mg/kg, compartment model parameters, DAS 2.0, rats p.o. SPC 60 g crude drug/kg, Mean, 5 rats, read-out: CL/F (converted)
  CL/F: 594 mL/min/kg
[1]; rat, plasma, po, 1.4 mg/kg, compartment model parameters, DAS 2.0, rats p.o. SPC 60 g crude drug/kg, Mean, 5 rats, read-out: t1/2β (converted)
  half-life: 36.5 h
[1]; rat, plasma, po, 1.4 mg/kg, statistical moment parameters, DAS 2.0, rats p.o. SPC 60 g crude drug/kg, Mean, 5 rats, read-out: AUC(0-t)
  AUC(0-t): 35.5 ng·h/mL
[1]; rat, plasma, po, 1.4 mg/kg, statistical moment parameters, DAS 2.0, rats p.o. SPC 60 g crude drug/kg, Mean, 5 rats, read-out: AUC(0-∞)
  AUC(0-inf): 35.9 ng·h/mL
[1]; rat, plasma, po, 1.4 mg/kg, statistical moment parameters, DAS 2.0, rats p.o. SPC 60 g crude drug/kg, Mean, 5 rats, read-out: CLz/F (converted)
  CL/F: 652 mL/min/kg
[1]; rat, plasma, po, 1.4 mg/kg, statistical moment parameters, DAS 2.0, rats p.o. SPC 60 g crude drug/kg, Mean, 5 rats, read-out: MRT(0-t)
  MRT last: 1.83 h
[1]; rat, plasma, po, 1.4 mg/kg, statistical moment parameters, DAS 2.0, rats p.o. SPC 60 g crude drug/kg, Mean, 5 rats, read-out: MRT(0-∞)
  MRT inf: 2.09 h
[1]; rat, plasma, po, 1.4 mg/kg, statistical moment parameters, DAS 2.0, rats p.o. SPC 60 g crude drug/kg, Mean, 5 rats, read-out: Tmax
  Tmax: 0.25 h
[1]; rat, plasma, po, 1.4 mg/kg, statistical moment parameters, DAS 2.0, rats p.o. SPC 60 g crude drug/kg, Mean, 5 rats, read-out: Vz/F
  Vd/F: 103 L/kg
[1]; rat, plasma, po, 1.4 mg/kg, statistical moment parameters, DAS 2.0, rats p.o. SPC 60 g crude drug/kg, Mean, 5 rats, read-out: t1/2z (converted)
  half-life: 1.82 h
[1]; rat, plasma, po, 2.62 mg/kg, rats, p.o. SPC 60 g crude drug/kg, doses of 1-4: 0.124, 0.22, 1.42, 2.62 mg/kg, n = 5, read-out: AUC0→t Val.
  AUC(0-t): 35.5 ng·h/mL
[1]; rat, plasma, po, 2.62 mg/kg, rats, p.o. SPC 60 g crude drug/kg, doses of 1-4: 0.124, 0.22, 1.42, 2.62 mg/kg, n = 5, read-out: AUC0→∞ Val.
  AUC(0-inf): 35.9 ng·h/mL
[1]; rat, plasma, po, rats, p.o. SPC 60 g crude drug/kg, doses of 1-4: 0.124, 0.22, 1.42, 2.62 mg/kg, n = 5, read-out: Tmax Val.
  Tmax: 0.25 h
[1]; [6]
  Cmax: 27.183 ng/mL
  Cz: 0.117 µg/L
  VRT(0-t): 4.934 h^2
  VRT(0-∞): 8.138 h^2
  elimination rate constant: 0.429 h⁻¹
[1]; [7]
  AUMC(0-t): 65.207
  AUMC(0-∞): 75.236
[2]
  AUC0→t Obs.: 28.4 ng·h/mL
  AUC0→∞ Obs.: 30.5 ng·h/mL
  Cmax Obs.: 15.1 ng/mL
  Tmax Obs.: 0.21 h
[3]
  Papp: 4 ×10⁻⁶ cm/s
[4]
  time of slight secondary absorption peak: 6 h
